The text below walks through data of patent US12404279B2, “Deubiquitinase inhibitors and methods of use thereof” (Molecure S.A., priority 2021, dated 2025).

This assay has as its target full-length USP7 (Homo sapiens (Human), UniProt Q93009). Briefly: Enzymatic assay to determine IC50 of USP7 inhibitors (Ubiquitin-Rhodamine 110 cleavage). Type of assay: biochemical. As to conditions: for IC50: 0.5 nM USP7, 0.5 μM Ubiquitin-Rhodamine 110, 45 min at 37° C.; for inhibition at 1 µM: read-out: percent value of inhibition of USP7 activity. The procedure, abridged:
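Enzyme: 0.5 nM full-length USP7 in HEPES pH 7.5 buffer with NaCl, DTT, BSA and Tween20, given 15 min at room temperature with DTT before compounds were added.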

[1] abbreviates: at 1 μM of the test compound, given where IC50 not determined yet.

Counter-ions that a name gives are not always drawn. Like-named read-outs stand apart in the source and are kept apart here.

Sequence of full-length USP7 (Q93009 whole entry): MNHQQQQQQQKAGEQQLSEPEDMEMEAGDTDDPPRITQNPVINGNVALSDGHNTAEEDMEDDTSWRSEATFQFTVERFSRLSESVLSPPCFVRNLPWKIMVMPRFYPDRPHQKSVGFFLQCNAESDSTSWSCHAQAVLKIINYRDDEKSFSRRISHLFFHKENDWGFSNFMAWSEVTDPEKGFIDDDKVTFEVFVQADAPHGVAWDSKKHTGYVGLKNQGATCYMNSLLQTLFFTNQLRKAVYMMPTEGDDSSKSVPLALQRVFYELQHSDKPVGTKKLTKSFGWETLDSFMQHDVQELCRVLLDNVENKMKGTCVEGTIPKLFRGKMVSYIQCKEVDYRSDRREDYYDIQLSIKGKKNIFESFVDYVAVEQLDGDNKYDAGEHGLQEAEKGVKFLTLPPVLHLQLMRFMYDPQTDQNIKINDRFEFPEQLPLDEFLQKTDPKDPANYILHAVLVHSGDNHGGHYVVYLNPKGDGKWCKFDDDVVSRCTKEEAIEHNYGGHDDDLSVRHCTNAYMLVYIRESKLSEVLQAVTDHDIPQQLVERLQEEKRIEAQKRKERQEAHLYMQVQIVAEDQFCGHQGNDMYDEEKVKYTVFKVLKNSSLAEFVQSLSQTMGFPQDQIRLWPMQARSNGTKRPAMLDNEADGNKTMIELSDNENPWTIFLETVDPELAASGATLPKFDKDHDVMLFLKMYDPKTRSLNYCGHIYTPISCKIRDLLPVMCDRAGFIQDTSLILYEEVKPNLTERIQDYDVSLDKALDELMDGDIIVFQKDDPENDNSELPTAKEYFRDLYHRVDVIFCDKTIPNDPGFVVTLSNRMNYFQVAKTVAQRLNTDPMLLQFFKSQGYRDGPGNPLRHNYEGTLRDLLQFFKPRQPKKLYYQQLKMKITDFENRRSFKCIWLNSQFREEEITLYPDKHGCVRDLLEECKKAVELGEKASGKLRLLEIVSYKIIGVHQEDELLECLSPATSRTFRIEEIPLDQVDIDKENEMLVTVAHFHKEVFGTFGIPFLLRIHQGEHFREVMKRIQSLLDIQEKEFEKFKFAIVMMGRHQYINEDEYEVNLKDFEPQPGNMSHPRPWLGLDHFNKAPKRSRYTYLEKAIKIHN

Broadly, the IC50 is the concentration that inhibits the measured activity by half. A lower IC50 goes with higher potency. “6,6-dimethyl-3-((7-(2-methyl-3-(pyrrolidin-3-ylmethyl)-6-(trifluoromethyl)pyridin-4-yl)thieno[3,2-b]pyridin-2-yl)methyl)-3-azabicyclo[3.1.0]hexane-2,4-dione 2,2,2-trifluoroacetate [Example 88]” yielded an IC50 below 500 nM.
Same read-out and setting: the result for `Cc1cc(C(F)(F)F)nc(-c2ccnc3cc(CN4C(=O)C5C(C4=O)C5(C)C)sc23)c1C(=O)N1CC[C@H](CN)C1` (stereo partly drawn) [Example 115, 3-((7-(3-((R)-3-(aminomethyl)pyrrolidine-1-carbonyl)-4-methyl-6-(trifluoromethyl)pyridin-2-yl)thieno[3,2-b]pyridin-2-yl)methyl)-6,6-dimethyl-3-azabicyclo[3.1.0]hexane-2,4-dione dihydrochloride] reads 500 to 1000 nM.
Usually inhibition stands for the percentage by which the read-out fell short of the control. For `Cc1cc(C(F)(F)F)nc(-c2ccnc3cc(CN4C(=O)C5C(C4=O)C5(C)C)sc23)c1CC1NC(=O)CNC1=O` (centres unmarked) [Example 37, 3-((7-(3-((3,6-dioxopiperazin-2-yl)methyl)-4-methyl-6-(trifluoromethyl)pyridin-2-yl)thieno[3,2-b]pyridin-2-yl)methyl)-6,6-dimethyl-3-azabicyclo[3.1.0]hexane-2,4-dione hydrochloride], the inhibition at 1 µM under setting [1] was below 20%.
As to `Cc1cc(C(F)(F)F)nc(-c2ccnc3cc(CN4C(=O)C5C(C4=O)C5(C)C)sc23)c1C(=O)N1CC[C@H](C(F)F)C1` (stereo partly drawn) [Example 104, 3-((7-(3-((S)-3-(difluoromethyl)pyrrolidine-1-carbonyl)-4-methyl-6-(trifluoromethyl)pyridin-2-yl)thieno[3,2-b]pyridin-2-yl)methyl)-6,6-dimethyl-3-azabicyclo[3.1.0]hexane-2,4-dione hydrochloride], the IC50 was below 500 nM.
For the compound `Cc1cc(C(F)(F)F)nc(-c2ccnc3cc(CN4C(=O)C5C(C4=O)C5(C)C)sc23)c1C(=O)N1CCC2CNCC21` (racemic) [Example 72, 6,6-dimethyl-3-((7-(4-methyl-3-(octahydropyrrolo[3,4-b]pyrrole-1-carbonyl)-6-(trifluoromethyl)pyridin-2-yl)thieno[3,2-b]pyridin-2-yl)methyl)-3-azabicyclo[3.1.0]hexane-2,4-dione dihydrochloride], the IC50 is below 500 nM.
Same read-out and setting: to `Cc1cc(C(F)(F)F)nc(-c2ccnc3cc(CN4C(=O)C5C(C4=O)C5(C)C)sc23)c1C[C@H]1CN(C)CCO1` (stereo partly drawn) [Example 97, 6,6-dimethyl-3-((7-(4-methyl-3-(((S)-4-methylmorpholin-2-yl)methyl)-6-(trifluoromethyl)pyridin-2-yl)thieno[3,2-b]pyridin-2-yl)methyl)-3-azabicyclo[3.1.0]hexane-2,4-dione dihydrochloride] belongs 1000 to 10000 nM.
The same measure, in the same setting: to `CN[C@H]1CCN(Cc2c(C)cc(C(F)(F)F)nc2-c2ccnc3cc(CN4C(=O)C5C(C4=O)C5(C)C)sc23)C1` (stereo partly drawn) [Example 160, 6,6-dimethyl-3-((7-(4-methyl-3-(((S)-3-(methylamino)pyrrolidin-1-yl)methyl)-6-(trifluoromethyl)pyridin-2-yl)thieno[3,2-b]pyridin-2-yl)methyl)-3-azabicyclo[3.1.0]hexane-2,4-dione hydrochloride] belongs below 500 nM.
For `Cc1ccnc(-c2ccnc3cc(CN4C(=O)C5C(C4=O)C5(C)C)sc23)c1C(=O)N1CCOCC1` (centres unmarked) [Example 48, 6,6-dimethyl-3-((7-(4-methyl-3-(morpholine-4-carbonyl)pyridin-2-yl)thieno[3,2-b]pyridin-2-yl)methyl)-3-azabicyclo[3.1.0]hexane-2,4-dione hydrochloride], the inhibition at 1 µM under setting [1] is below 20%.
For the compound `CCN1CCN(C(=O)c2c(C)cc(C(F)(F)F)nc2-c2ccnc3cc(CN4C(=O)C5C(C4=O)C5(C)C)sc23)CC1` (centres unmarked) [Example 143, 3-((7-(3-(4-ethylpiperazine-1-carbonyl)-4-methyl-6-(trifluoromethyl)pyridin-2-yl)thieno[3,2-b]pyridin-2-yl)methyl)-6,6-dimethyl-3-azabicyclo[3.1.0]hexane-2,4-dione trihydrochloride], the IC50 was below 500 nM.
In turn, `Cc1cc(C(F)(F)F)nc(-c2ccnc3cc(CN4C(=O)C5C(C4=O)C5(C)C)sc23)c1C(=O)N1CCC(C)(N)C1` (racemic) [Example 137, 3-((7-(3-(3-amino-3-methylpyrrolidine-1-carbonyl)-4-methyl-6-(trifluoromethyl)pyridin-2-yl)thieno[3,2-b]pyridin-2-yl)methyl)-6,6-dimethyl-3-azabicyclo[3.1.0]hexane-2,4-dione trihydrochloride] had an IC50 of 500 to 1000 nM.
Same read-out and setting: to `COCC(=O)Nc1c(-c2ccnc3cc(CN4C(=O)C5C(C4=O)C5(C)C)sc23)cc(C(F)(F)F)nc1C` (centres unmarked) [Example 61, N-(4-(2-((6,6-dimethyl-2,4-dioxo-3-azabicyclo[3.1.0]hexan-3-yl)methyl)thieno[3,2-b]pyridin-7-yl)-2-methyl-6-(trifluoromethyl)pyridin-3-yl)-2-methoxyacetamide 2,2,2-trifluoroacetate] belongs above 10000 nM; to `Cc1cc(C(F)(F)F)nc(-c2ccnc3cc(CN4C(=O)C5C(C4=O)C5(C)C)sc23)c1C(=O)N1CC[C@H](F)C1` (stereo partly drawn) [Example 114, 3-((7-(3-((S)-3-fluoropyrrolidine-1-carbonyl)-4-methyl-6-(trifluoromethyl)pyridin-2-yl)thieno[3,2-b]pyridin-2-yl)methyl)-6,6-dimethyl-3-azabicyclo[3.1.0]hexane-2,4-dione hydrochloride], below 500 nM.
Still for that read-out and setting: the result for `Cc1cc(C(F)(F)F)nc(-c2ccnc3cc(CN4C(=O)C5C(C4=O)C5(C)C)sc23)c1C[C@@H]1CNCCO1` (stereo partly drawn) [Example 96, 6,6-dimethyl-3-((7-(4-methyl-3-(((R)-morpholin-2-yl)methyl)-6-(trifluoromethyl)pyridin-2-yl)thieno[3,2-b]pyridin-2-yl)methyl)-3-azabicyclo[3.1.0]hexane-2,4-dione dihydrochloride] reads below 500 nM; that for “3-((7-(3-(3,3-difluoroazetidine-1-carbonyl)-4,6-dimethylpyridin-2-yl)thieno[3,2-b]pyridin-2-yl)methyl)-6,6-dimethyl-3-azabicyclo[3.1.0]hexane-2,4-dione hydrochloride [Example 85]”, 1000 to 10000 nM.
Still for that read-out and setting: the result for `CN[C@@H]1CN(C(=O)c2c(C)cc(C(F)(F)F)nc2-c2ccnc3cc(CN4C(=O)C5C(C4=O)C5(C)C)sc23)C[C@H]1C` (stereo partly drawn) [Example 168, 6,6-dimethyl-3-((7-(4-methyl-3-((3R,4S)-3-methyl-4-(methylamino)pyrrolidine-1-carbonyl)-6-(trifluoromethyl)pyridin-2-yl)thieno[3,2-b]pyridin-2-yl)methyl)-3-azabicyclo[3.1.0]hexane-2,4-dione hydrochloride] reads below 500 nM.
Take `Cc1c([N+](=O)[O-])cc(-c2ccnc3cc(CN4C(=O)C5C(C4=O)C5(C)C)sc23)n1C[C@@H]1CNCCO1` (stereo partly drawn) [Example 154, 6,6-dimethyl-3-((7-(5-methyl-1-(((S)-morpholin-2-yl)methyl)-4-nitro-1H-pyrrol-2-yl)thieno[3,2-b]pyridin-2-yl)methyl)-3-azabicyclo[3.1.0]hexane-2,4-dione hydrochloride]: the IC50 is below 500 nM.
On the same count and under the same terms, to `Cc1cc(C(F)(F)F)nc(-c2ccnc3cc(CN4C(=O)C5C(C4=O)C5(C)C)sc23)c1C(=O)N1CCN(C)CC1` (centres unmarked) [Example 80, 6,6-dimethyl-3-((7-(4-methyl-3-(4-methylpiperazine-1-carbonyl)-6-(trifluoromethyl)pyridin-2-yl)thieno[3,2-b]pyridin-2-yl)methyl)-3-azabicyclo[3.1.0]hexane-2,4-dione dihydrochloride] belongs below 500 nM.
The compound `CC1(C)C2C(=O)N(Cc3cc4nccc(-c5cc(C(F)(F)F)cnc5C[C@@H]5CNCCO5)c4s3)C(=O)C21` (stereo partly drawn) [Example 99, 6,6-dimethyl-3-((7-(2-(((R)-morpholin-2-yl)methyl)-5-(trifluoromethyl)pyridin-3-yl)thieno[3,2-b]pyridin-2-yl)methyl)-3-azabicyclo[3.1.0]hexane-2,4-dione 2,2,2-trifluoroacetate] registered an IC50 below 500 nM.
The same measure, in the same setting: the result for `Cc1cc(C#N)nc(-c2ccnc3cc(CN4C(=O)C5C(C4=O)C5(C)C)sc23)c1OC1CCCNC1` (centres unmarked) [Example 1, 6-(2-((6,6-dimethyl-2,4-dioxo-3-azabicyclo[3.1.0]hexan-3-yl)methyl)thieno[3,2-b]pyridin-7-yl)-4-methyl-5-(piperidin-3-yloxy)picolinonitrile 2,2,2-trifluoroacetate] reads below 500 nM.
As for `Cc1nc(C#N)cc(-c2ccnc3cc(CN4C(=O)C5C(C4=O)C5(C)C)sc23)c1C(=O)NC1CC(F)(F)C1` (centres unmarked) [Example 14, 6-cyano-N-(3,3-difluorocyclobutyl)-4-(2-((6,6-dimethyl-2,4-dioxo-3-azabicyclo[3.1.0]hexan-3-yl)methyl)thieno[3,2-b]pyridin-7-yl)-2-methylnicotinamide 2,2,2-trifluoroacetate], the inhibition at 1 µM is below 20%.
As to `Cc1cc(C(F)(F)F)nc(-c2ccnc3cc(CN4C(=O)C5C(C4=O)C5(C)C)sc23)c1C(=O)N1CCC(CN)C1` (racemic) [Example 139, 3-((7-(3-(3-(aminomethyl)pyrrolidine-1-carbonyl)-4-methyl-6-(trifluoromethyl)pyridin-2-yl)thieno[3,2-b]pyridin-2-yl)methyl)-6,6-dimethyl-3-azabicyclo[3.1.0]hexane-2,4-dione trihydrochloride], the IC50 is below 500 nM.
The same measure, in the same setting: to `Cc1cc(C(F)(F)F)nc(-c2ccnc3cc(CN4C(=O)C5C(C4=O)C5(C)C)sc23)c1C(=O)N1C[C@@H]2CCN[C@@H]2C1` (stereo partly drawn) [Example 163, 6,6-dimethyl-3-((7-(4-methyl-3-((3aS,6aS)-octahydropyrrolo[3,4-b]pyrrole-5-carbonyl)-6-(trifluoromethyl)pyridin-2-yl)thieno[3,2-b]pyridin-2-yl)methyl)-3-azabicyclo[3.1.0]hexane-2,4-dione hydrochloride] belongs 500 to 1000 nM.
The same measure, in the same setting: to `Cc1cc(Cl)nc(-c2ccnc3cc(CN4C(=O)C5C(C4=O)C5(C)C)sc23)c1O[C@H]1CCCNC1` (single isomer, unassigned) [Example 4, hydrochloride] belongs below 500 nM.
